Laboratory results reported in patent publication US20080063668A1, “Nitroimidazole and terconazole composition and method” (priority 2006, published 2008).

Experiments:
Assay in all cases: Inhibition of bacteria growth, drug dilution tubes, anaerobic
Assay type in all cases: cell-based
Design in all cases: key to growth: (+) for growth; (−) for no growth; (±) for suboptimal growth after an initial observation of growth
[1] = system: Gardnerella vaginalis ATCC 14019
Description: (§1) Serial dilutions of tinidazole and terconazole were prepared by adding measured amounts of each substance to water (both individually and in combination). Seven bacterial organisms that are common pathogens in bacterial vaginosis were grown anaerobically in the medium as listed in Table 4 under a N2/H2/CO2 (85:5:10) head space atmosphere. [table] These cultures were diluted to a 0.5 McFarland standard prior to inoculation of drug dilution tubes. One (1) mL of the 0.5 McFarland preparation was inoculated to an anaerobically prepared test tube containing 0.8 mL of Difco anaerobic medium (DAMM) and 0.2 mL of appropriate diluted antimicrobial or antimicrobial combination for a total of 2 mL. The inoculated tubes were then incubated at 37° C. and monitored daily for growth. Growth was scored with a (+) for growth, (−) for no growth, and (±) for suboptimal growth after an initial observation of growth. Tinidazole is abbreviated as TNZ and terconazole is abbreviated as TER in Tables 5 through 11.

Atopobium vaginae BAA-55 = system: Atopobium vaginae BAA-55
Description: as §1

[2] = system: Mobiluncus mulieris ATCC 35243
Description: as §1

Structure (SMILES): CC(C)N1CCN(c2ccc(OCC3COC(Cn4cncn4)(c4ccc(Cl)cc4Cl)O3)cc2)CC1 (stereo not drawn) [TER, cis-1-[p[[2-(2,4-dichlorophenyl)-2-(1 H-1,2,4-triazol-1-ylmethyl)-1,3-dioxolan-4-yl]methoxy]phenyl]-4-isopropylpiperazine]
- antibacterial activity compared with tinidazole [1]: superior to the antibacterial compound tinidazole
- growth ([1]; TER 3.1 μg/ml, DAY 1): (+)
- growth ([1]; TER 3.1 μg/ml, DAY 2): (+)
- growth ([1]; TER 3.1 μg/ml, DAY 3): (+)
- growth ([1]; TER 3.1 μg/ml, DAY 4): (+)
- growth ([1]; TER 3.1 μg/ml, DAY 5): (+)
- growth ([1]; TER 6.2 μg/ml, DAY 1): (+)
- growth ([1]; TER 6.2 μg/ml, DAY 2): (+)
- growth ([1]; TER 6.2 μg/ml, DAY 3): (+)
- growth ([1]; TER 6.2 μg/ml, DAY 4): (+)
- growth ([1]; TER 6.2 μg/ml, DAY 5): (+)
- growth ([1]; TER 12.5 μg/ml, DAY 1): (+)
- growth ([1]; TER 12.5 μg/ml, DAY 2): (+)
- growth ([1]; TER 12.5 μg/ml, DAY 3): (+)
- growth ([1]; TER 12.5 μg/ml, DAY 4): (+)
- growth ([1]; TER 12.5 μg/ml, DAY 5): (+)
- growth ([1]; TER 25 μg/ml, DAY 1): (+)
- growth ([1]; TER 25 μg/ml, DAY 2): (+)
- growth ([1]; TER 25 μg/ml, DAY 3): (+)
- growth ([1]; TER 25 μg/ml, DAY 4): (+)
- growth ([1]; TER 25 μg/ml, DAY 5): (+)
- growth ([1]; TER 50 μg/ml, DAY 1): (+)
- growth ([1]; TER 50 μg/ml, DAY 2): (+)
- growth ([1]; TER 50 μg/ml, DAY 3): (+)
- growth ([1]; TER 50 μg/ml, DAY 4): (+)
- growth ([1]; TER 50 μg/ml, DAY 5): (+)
- growth ([1]; TER 100 μg/ml, DAY 1): (+)
- growth ([1]; TER 100 μg/ml, DAY 2): (+)
- growth ([1]; TER 100 μg/ml, DAY 3): (+)
- growth ([1]; TER 100 μg/ml, DAY 4): (+)
- growth ([1]; TER 100 μg/ml, DAY 5): (+)
- growth ([1]; TER 200 μg/ml, DAY 1): (+)
- growth ([1]; TER 200 μg/ml, DAY 2): (+)
- growth ([1]; TER 200 μg/ml, DAY 3): (+)
- growth ([1]; TER 200 μg/ml, DAY 4): (+)
- growth ([1]; TER 200 μg/ml, DAY 5): (+)
- growth ([1]; TER 400 μg/ml, DAY 1): (+)
- growth ([1]; TER 400 μg/ml, DAY 2): (+)
- growth ([1]; TER 400 μg/ml, DAY 3): (+)
- growth ([1]; TER 400 μg/ml, DAY 4): (+)
- growth ([1]; TER 400 μg/ml, DAY 5): (+)
- growth ([1]; TER 800 μg/ml, DAY 1): (−)
- growth ([1]; TER 800 μg/ml, DAY 2): (−)
- growth ([1]; TER 800 μg/ml, DAY 3): (−)
- growth ([1]; TER 800 μg/ml, DAY 4): (−)
- growth ([1]; TER 800 μg/ml, DAY 5): (−)
- growth (Atopobium vaginae BAA-55; TER 3.1 μg/ml, DAY 1): (+)
- growth (Atopobium vaginae BAA-55; TER 3.1 μg/ml, DAY 2): (+)
- growth (Atopobium vaginae BAA-55; TER 3.1 μg/ml, DAY 3): (+)
- growth (Atopobium vaginae BAA-55; TER 3.1 μg/ml, DAY 4): (+)
- growth (Atopobium vaginae BAA-55; TER 3.1 μg/ml, DAY 5): (+)
- growth (Atopobium vaginae BAA-55; TER 6.2 μg/ml, DAY 1): (+)
- growth (Atopobium vaginae BAA-55; TER 6.2 μg/ml, DAY 2): (+)
- growth (Atopobium vaginae BAA-55; TER 6.2 μg/ml, DAY 3): (+)
- growth (Atopobium vaginae BAA-55; TER 6.2 μg/ml, DAY 4): (+)
- growth (Atopobium vaginae BAA-55; TER 6.2 μg/ml, DAY 5): (+)
- growth (Atopobium vaginae BAA-55; TER 12.5 μg/ml, DAY 1): (+)
- growth (Atopobium vaginae BAA-55; TER 12.5 μg/ml, DAY 2): (+)
- growth (Atopobium vaginae BAA-55; TER 12.5 μg/ml, DAY 3): (+)
- growth (Atopobium vaginae BAA-55; TER 12.5 μg/ml, DAY 4): (+)
- growth (Atopobium vaginae BAA-55; TER 12.5 μg/ml, DAY 5): (+)
- growth (Atopobium vaginae BAA-55; TER 25 μg/ml, DAY 1): (+)
- growth (Atopobium vaginae BAA-55; TER 25 μg/ml, DAY 2): (+)
- growth (Atopobium vaginae BAA-55; TER 25 μg/ml, DAY 3): (+)
- growth (Atopobium vaginae BAA-55; TER 25 μg/ml, DAY 4): (+)
- growth (Atopobium vaginae BAA-55; TER 25 μg/ml, DAY 5): (+)
- growth (Atopobium vaginae BAA-55; TER 50 μg/ml, DAY 1): (+)
- growth (Atopobium vaginae BAA-55; TER 50 μg/ml, DAY 2): (+)
- growth (Atopobium vaginae BAA-55; TER 50 μg/ml, DAY 3): (+)
- growth (Atopobium vaginae BAA-55; TER 50 μg/ml, DAY 4): (+)
- growth (Atopobium vaginae BAA-55; TER 50 μg/ml, DAY 5): (+)
- growth (Atopobium vaginae BAA-55; TER 100 μg/ml, DAY 1): (−)
- growth (Atopobium vaginae BAA-55; TER 100 μg/ml, DAY 2): (−)
- growth (Atopobium vaginae BAA-55; TER 100 μg/ml, DAY 3): (+)
- growth (Atopobium vaginae BAA-55; TER 100 μg/ml, DAY 4): (+)
- growth (Atopobium vaginae BAA-55; TER 100 μg/ml, DAY 5): (+)
- growth (Atopobium vaginae BAA-55; TER 200 μg/ml, DAY 1): (−)
- growth (Atopobium vaginae BAA-55; TER 200 μg/ml, DAY 2): (−)
- growth (Atopobium vaginae BAA-55; TER 200 μg/ml, DAY 3): (−)
- growth (Atopobium vaginae BAA-55; TER 200 μg/ml, DAY 4): (+)
- growth (Atopobium vaginae BAA-55; TER 200 μg/ml, DAY 5): (+)
- growth (Atopobium vaginae BAA-55; TER 400 μg/ml, DAY 1): (−)
- growth (Atopobium vaginae BAA-55; TER 400 μg/ml, DAY 2): (−)
- growth (Atopobium vaginae BAA-55; TER 400 μg/ml, DAY 3): (−)
- growth (Atopobium vaginae BAA-55; TER 400 μg/ml, DAY 4): (−)
- growth (Atopobium vaginae BAA-55; TER 400 μg/ml, DAY 5): (−)
- growth (Atopobium vaginae BAA-55; TER 800 μg/ml, DAY 1): (−)
- growth (Atopobium vaginae BAA-55; TER 800 μg/ml, DAY 2): (−)
- growth (Atopobium vaginae BAA-55; TER 800 μg/ml, DAY 3): (−)
- growth (Atopobium vaginae BAA-55; TER 800 μg/ml, DAY 4): (−)
- growth (Atopobium vaginae BAA-55; TER 800 μg/ml, DAY 5): (−)
- antibacterial activity compared with tinidazole (Atopobium vaginae BAA-55; Tables 6 through 11): superior to the antibacterial compound tinidazole
- growth ([2]; TER 3.1 μg/ml, DAY 1): (+)
- growth ([2]; TER 3.1 μg/ml, DAY 2): (+)
- growth ([2]; TER 3.1 μg/ml, DAY 3): (+)
- growth ([2]; TER 3.1 μg/ml, DAY 4): (+)
- growth ([2]; TER 3.1 μg/ml, DAY 5): (+)
- growth ([2]; TER 6.2 μg/ml, DAY 1): (+)
- growth ([2]; TER 6.2 μg/ml, DAY 2): (+)
- growth ([2]; TER 6.2 μg/ml, DAY 3): (+)
- growth ([2]; TER 6.2 μg/ml, DAY 4): (+)
- growth ([2]; TER 6.2 μg/ml, DAY 5): (+)
- growth ([2]; TER 12.5 μg/ml, DAY 1): (+)
- growth ([2]; TER 12.5 μg/ml, DAY 2): (+)
- growth ([2]; TER 12.5 μg/ml, DAY 3): (+)
- growth ([2]; TER 12.5 μg/ml, DAY 4): (+)
- growth ([2]; TER 12.5 μg/ml, DAY 5): (+)
- growth ([2]; TER 25 μg/ml, DAY 1): (+)
- growth ([2]; TER 25 μg/ml, DAY 2): (+)
- growth ([2]; TER 25 μg/ml, DAY 3): (+)
- growth ([2]; TER 25 μg/ml, DAY 4): (+)
- growth ([2]; TER 25 μg/ml, DAY 5): (+)
- growth ([2]; TER 50 μg/ml, DAY 1): (+)
- growth ([2]; TER 50 μg/ml, DAY 2): (+)
- growth ([2]; TER 50 μg/ml, DAY 3): (+)
- growth ([2]; TER 50 μg/ml, DAY 4): (+)
- growth ([2]; TER 50 μg/ml, DAY 5): (+)
- growth ([2]; TER 100 μg/ml, DAY 1): (+)
- growth ([2]; TER 100 μg/ml, DAY 2): (+)
- growth ([2]; TER 100 μg/ml, DAY 3): (+)
- growth ([2]; TER 100 μg/ml, DAY 4): (+)
- growth ([2]; TER 100 μg/ml, DAY 5): (+)
- growth ([2]; TER 200 μg/ml, DAY 1): (+)
- growth ([2]; TER 200 μg/ml, DAY 2): (+)
- growth ([2]; TER 200 μg/ml, DAY 3): (+)
- growth ([2]; TER 200 μg/ml, DAY 4): (+)
- growth ([2]; TER 200 μg/ml, DAY 5): (+)
- growth ([2]; TER 400 μg/ml, DAY 1): (−)
- growth ([2]; TER 400 μg/ml, DAY 2): (−)
- growth ([2]; TER 400 μg/ml, DAY 3): (−)
- growth ([2]; TER 400 μg/ml, DAY 4): (−)
- growth ([2]; TER 400 μg/ml, DAY 5): (−)
- growth ([2]; TER 800 μg/ml, DAY 1): (−)
- growth ([2]; TER 800 μg/ml, DAY 2): (−)
- growth ([2]; TER 800 μg/ml, DAY 3): (−)
- growth ([2]; TER 800 μg/ml, DAY 4): (−)
- growth ([2]; TER 800 μg/ml, DAY 5): (−)
- antibacterial activity compared with tinidazole ([2]; Tables 6 through 11): superior to the antibacterial compound tinidazole
